# US10770169B2, “Method of providing a treatment to a subject based on a dynamic pathway map” (THE REGENTS OF THE UNIVERSITY OF CALIFORNIA, priority 2010, dated 2020)
# Like-named read-outs stand apart in the source and are kept apart here.
# Tested on: panel of 55 breast cancer cell lines
# Experiment: Cell growth inhibition assay (Cell Titer Glo, 72 h, 9 doses; GI50, TGI, LC50)
# Type: cell-based, human
smiles,measurement,setting,value
O=C1NC(=O)/C(=C/c2ccc(-c3ccc(F)cc3O)o2)S1 [AS-252424],GI50,"AU565 cell line, censored GI50 values, value is the negative log10 of mol/L",4.87
same,GI50,"BT20 cell line, censored GI50 values, value is the negative log10 of mol/L",4.65
same,GI50,"BT474 cell line, censored GI50 values, value is the negative log10 of mol/L",5.36
same,GI50,"BT483 cell line, censored GI50 values, value is the negative log10 of mol/L",5.37
same,GI50,"HCC1187 cell line, censored GI50 values, value is the negative log10 of mol/L",5.78
same,GI50,"HCC1419 cell line, censored GI50 values, value is the negative log10 of mol/L",4.69
same,GI50,"HCC1428 cell line, censored GI50 values, value is the negative log10 of mol/L",5.31
same,GI50,"HCC1500 cell line, censored GI50 values, value is the negative log10 of mol/L",5.24
same,GI50,"HCC1806 cell line, censored GI50 values, value is the negative log10 of mol/L",5.15
same,GI50,"HCC1954 cell line, censored GI50 values, value is the negative log10 of mol/L",5.46
same,GI50,"HCC2185 cell line, censored GI50 values, value is the negative log10 of mol/L",4.46
same,GI50,"MCF7 cell line, censored GI50 values, value is the negative log10 of mol/L",4.80
same,GI50,"MDAMB175VII cell line, censored GI50 values, value is the negative log10 of mol/L",4.61
same,GI50,"MDAMB361 cell line, censored GI50 values, value is the negative log10 of mol/L",4.71
same,GI50,"MDAMB436 cell line, censored GI50 values, value is the negative log10 of mol/L",4.74
same,GI50,"MDAMB453 cell line, censored GI50 values, value is the negative log10 of mol/L",4.69
same,GI50,"SKBR3 cell line, censored GI50 values, value is the negative log10 of mol/L",4.40
same,GI50,"SUM52PE cell line, censored GI50 values, value is the negative log10 of mol/L",4.44
same,GI50,"SUM149PT cell line, censored GI50 values, value is the negative log10 of mol/L",4.66
same,GI50,"SUM185PE cell line, censored GI50 values, value is the negative log10 of mol/L",5.27
same,GI50,"SUM225CWN cell line, censored GI50 values, value is the negative log10 of mol/L",5.02
same,GI50,"SUM1315MO2 cell line, censored GI50 values, value is the negative log10 of mol/L",4.75
same,GI50,"T47D cell line, censored GI50 values, value is the negative log10 of mol/L",5.25
same,GI50,"UACC812 cell line, censored GI50 values, value is the negative log10 of mol/L",4.88
same,GI50,"ZR75B cell line, censored GI50 values, value is the negative log10 of mol/L",4.65
same,GI50,"ZR751 cell line, censored GI50 values, value is the negative log10 of mol/L",5.20
same,GI50,"cell line AU565, value is the negative log10 of mol/L",4.87
same,GI50,"cell line BT20, value is the negative log10 of mol/L",4.65
same,GI50,"cell line BT474, value is the negative log10 of mol/L",5.36
same,GI50,"cell line BT483, value is the negative log10 of mol/L",5.37
same,GI50,"cell line CAMA1, value is the negative log10 of mol/L",4.18
same,GI50,"cell line HCC70, value is the negative log10 of mol/L",4.67
same,GI50,"cell line HCC1187, value is the negative log10 of mol/L",5.78
same,GI50,"cell line HCC1419, value is the negative log10 of mol/L",4.69
same,GI50,"cell line HCC1428, value is the negative log10 of mol/L",5.31
same,GI50,"cell line HCC1500, value is the negative log10 of mol/L",5.24
same,GI50,"cell line HCC1806, value is the negative log10 of mol/L",5.15
same,GI50,"cell line HCC1937, value is the negative log10 of mol/L",4.18
same,GI50,"cell line HCC1954, value is the negative log10 of mol/L",5.46
same,GI50,"cell line HCC2185, value is the negative log10 of mol/L",4.46
same,GI50,"cell line HCC3153, value is the negative log10 of mol/L",4.48
same,GI50,"cell line LY2, value is the negative log10 of mol/L",4.51
same,GI50,"cell line MCF7, value is the negative log10 of mol/L",4.80
same,GI50,"cell line MDAMB134V, value is the negative log10 of mol/L",4.30
same,GI50,"cell line MDAMB175V, value is the negative log10 of mol/L",4.61
same,GI50,"cell line MDAMB361, value is the negative log10 of mol/L",4.71
same,GI50,"cell line MDAMB436, value is the negative log10 of mol/L",4.74
same,GI50,"cell line MDAMB453, value is the negative log10 of mol/L",4.69
same,GI50,"cell line MDAMB468, value is the negative log10 of mol/L",4.18
same,GI50,"cell line SKBR3, value is the negative log10 of mol/L",4.40
same,GI50,"cell line SUM52PE, value is the negative log10 of mol/L",4.44
same,GI50,"cell line SUM149PT, value is the negative log10 of mol/L",4.66
same,GI50,"cell line SUM185PE, value is the negative log10 of mol/L",5.27
same,GI50,"cell line SUM225CWN, value is the negative log10 of mol/L",5.02
same,GI50,"cell line SUM1315MO, value is the negative log10 of mol/L",4.75
same,GI50,"cell line T47D, value is the negative log10 of mol/L",5.25
same,GI50,"cell line UACC812, value is the negative log10 of mol/L",4.88
same,GI50,"cell line ZR75B, value is the negative log10 of mol/L",4.65
same,GI50,"cell line ZR751, value is the negative log10 of mol/L",5.20
Cn1cnc2c(F)c(Nc3ccc(Br)cc3Cl)c(C(=O)NOCCO)cc21 [AZD6244],GI50,"Homo sapiens, BT-20, cell line BT20, read-out: GI50 (converted)",50.1 µM
same,GI50,"Homo sapiens, BT-474, cell line BT474, read-out: GI50 (converted)",50.1 µM
same,GI50,"Homo sapiens, BT-483, cell line BT483, read-out: GI50 (converted)",50.1 µM
same,GI50,"Homo sapiens, CAMA-1, cell line CAMA1, read-out: GI50 (converted)",50.1 µM
same,GI50,"Homo sapiens, HCC38, cell line HCC38, read-out: GI50 (converted)",50.1 µM
same,GI50,"Homo sapiens, HCC1395, HCC1395 cell line, censored GI50 values, read-out: GI50 (converted)",28.8 µM
same,GI50,"Homo sapiens, HCC1395, cell line HCC1395, read-out: GI50 (converted)",28.8 µM
same,GI50,"Homo sapiens, HCC1419, HCC1419 cell line, censored GI50 values, read-out: GI50 (converted)",17.8 µM
same,GI50,"Homo sapiens, HCC1419, cell line HCC1419, read-out: GI50 (converted)",17.8 µM
same,GI50,"Homo sapiens, HCC1428, cell line HCC1428, read-out: GI50 (converted)",50.1 µM
same,GI50,"Homo sapiens, HCC1500, cell line HCC1500, read-out: GI50 (converted)",50.1 µM
same,GI50,"Homo sapiens, HCC1806, cell line HCC1806, read-out: GI50 (converted)",50.1 µM
same,GI50,"Homo sapiens, HCC1937, cell line HCC1937, read-out: GI50 (converted)",50.1 µM
same,GI50,"Homo sapiens, HCC1954, HCC1954 cell line, censored GI50 values, read-out: GI50 (converted)",1.45 µM
same,GI50,"Homo sapiens, HCC1954, cell line HCC1954, read-out: GI50 (converted)",1.45 µM
same,GI50,"Homo sapiens, MCF7, cell line MCF7, read-out: GI50 (converted)",50.1 µM
same,GI50,"Homo sapiens, MDA-MB-134-VI, MDAMB134VI cell line, censored GI50 values, read-out: GI50 (converted)",1.17 µM
same,GI50,"Homo sapiens, MDA-MB-175-VII, MDAMB175VII cell line, censored GI50 values, read-out: GI50 (converted)",2.57 µM
same,GI50,"Homo sapiens, MDA-MB-231, cell line MDAMB231, read-out: GI50 (converted)",50.1 µM
same,GI50,"Homo sapiens, MDA-MB-361, cell line MDAMB361, read-out: GI50 (converted)",50.1 µM
same,GI50,"Homo sapiens, MDA-MB-415, cell line MDAMB415, read-out: GI50 (converted)",50.1 µM
same,GI50,"Homo sapiens, MDA-MB-436, cell line MDAMB436, read-out: GI50 (converted)",50.1 µM
same,GI50,"Homo sapiens, MDA-MB-453, cell line MDAMB453, read-out: GI50 (converted)",50.1 µM
same,GI50,"Homo sapiens, MDA-MB-468, cell line MDAMB468, read-out: GI50 (converted)",50.1 µM
same,GI50,"Homo sapiens, SK-BR-3, cell line SKBR3, read-out: GI50 (converted)",50.1 µM
same,GI50,"Homo sapiens, SUM52PE, SUM52PE cell line, censored GI50 values, read-out: GI50 (converted)",9.77 µM
same,GI50,"Homo sapiens, SUM52PE, cell line SUM52PE, read-out: GI50 (converted)",9.77 µM
same,GI50,"Homo sapiens, SUM149PT, SUM149PT cell line, censored GI50 values, read-out: GI50 (converted)",0.525 µM
same,GI50,"Homo sapiens, SUM149PT, cell line SUM149PT, read-out: GI50 (converted)",0.525 µM
same,GI50,"Homo sapiens, SUM185PE, cell line SUM185PE, read-out: GI50 (converted)",50.1 µM
same,GI50,"Homo sapiens, SUM1315MO2, SUM1315MO2 cell line, censored GI50 values, read-out: GI50 (converted)",7.59 µM
same,GI50,"Homo sapiens, T47D, cell line T47D, read-out: GI50 (converted)",50.1 µM
same,GI50,"Homo sapiens, ZR-75-1, ZR751 cell line, censored GI50 values, read-out: GI50 (converted)",6.17 µM
same,GI50,"Homo sapiens, ZR-75-1, cell line ZR751, read-out: GI50 (converted)",6.17 µM
same,GI50,"Homo sapiens, ZR-75B, cell line ZR75B, read-out: GI50 (converted)",50.1 µM
same,GI50,"Homo sapiens, cell line HCC2185, read-out: GI50 (converted)",50.1 µM
same,GI50,"Homo sapiens, cell line MDAMB134V, read-out: GI50 (converted)",1.17 µM
same,GI50,"Homo sapiens, cell line MDAMB175V, read-out: GI50 (converted)",2.57 µM
same,GI50,"Homo sapiens, cell line SUM1315MO, read-out: GI50 (converted)",7.59 µM
